Read-outs that look alike come from different tables or passages of the source.

Experiment [1] deals with RS4;11 (BCL-2 dependent acute lymphoblastic leukemia cell line). Description: RS4;11 Cell Proliferation Assay. It counts as cell-based. Particulars: read-out: Cellular proliferation assay (IC50, nM) RS4. As for the experimental part: Biological Example: RS4;11 Cell Proliferation Assay
(§1) The BCL-2 dependent acute lymphoblastic leukemia (ALL) cell line, RS4;11, was used to study the cellular potency of BCL-2 inhibitors. The cells (ATCC, CRL-1873) were cultured in RPMI-1640 complete medium (RPMI-1640 medium, HEPES (Gibco, 22400-105) supplemented with 10% fetal bovine serum (FBS) (Gibco, 10099-1441), 100 unit/ml penicillin and 100 μg/ml streptomycin (Gibco, 15140122)) and maintained in a humidified chamber at 37° C. containing 5% CO2. Each compound was serially diluted with 1 μM as the maximum concentration. To test the apoptotic effect of the compounds, the cells were seeded at 50,000 in 180 μl per well in 96-well plates and treated with 10-point dilution series of each compound for 48 hrs at 37° C. Cell viability was assessed after the treatment using CellTiter-GLO luminescent assay (Promega) according to the manufacturer's recommendations. Briefly, 30 μl of CellTiter-GLO reagent was added into 200 μl of cell culture. Mixture was agitated on an orbital shaker for 5 min to ensure cell lysis followed by 7 min incubation at room temperature to allow development and stabilization of luminescent signals, which corresponded to the quantity of ATP and thus the quantity of metabolically active cells. Luminescent signals were measured using PHERAstar FS reader (BMG). Mean IC50 values were determined with GraphPad Prism software.

Experiment [2] relates to recombinant human Bcl-2-G101V protein. Description: Bcl-2-G101V TR-FRET Assay. It counts as binding. Particulars: ratio of biochemical IC50 Bcl-2 G101V / Bcl-2 WT. The method in brief:
(§2)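 IC50 values derive from four-parameter logistic fitting of percent inhibition data. That inhibition of ligand binding to Bcl-2-G101V is computed from the 490 nm/520 nm TR-FRET ratio under 337 nm excitation, over a rising compound concentration series.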
(In TR-FRET formats the signal depends on donor and acceptor labels being close together.)

Experiment [3] deals with recombinant human Bcl-2-G101V protein (Homo sapiens (Human), UniProt P10415, G101V). Nature of the experiment: Bcl-2-G101V TR-FRET Assay. Type of experiment: binding. The following applies: Bcl-2 G101V mutant, TR-FRET; read-out: Biochemical assay (IC50, nM) Bcl-2 G101V. Put shortly:
as §2

For experiment [4], the target named is Recombinant human Bcl-2 protein (Homo sapiens (Human), UniProt P10415). Nature of the experiment: Bcl-2 TR-FRET Assay. Type of experiment: binding. The following applies: Bcl-2 wild type, TR-FRET; read-out: Biochemical assay (IC50, nM) Bcl-2 WT. The method in brief: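 TR-FRET read (337 nm excitation, 520/490 nm emission) after 1 h with 0.5 nM FITC-labeled Bak peptide and Tb-cryptate anti-6His antibody. Bcl-2 at 0.05 nM had been pre-incubated 0.5 h with compound. IC50 fitted by four-parameter logistic equation.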

The subject of experiment [5] is BCL-2 G101V knock-in cell line H96 (derive from RS4;11). Nature of the experiment: Bcl 2-G101V Knock-In RS4;11 Cell Proliferation Assay. Type of experiment: cell-based. Particulars: Homo sapiens, RS4;11 Bcl-2 G101V knock-in clone H96, 48 hrs, CellTiter-GLO, read-out: Cellular proliferation assay (IC50, nM) RS4. As to the method:
Biological Example: Bcl 2-G101V Knock-In RS4;11 Cell Proliferation Assay
(1) RS4;11 H96 Bcl 2-G101V Knock-In Cell Line Generation
Briefly, RS4;11 BCL2-G101V knock-in cell pool was generated using Crisper/Cas9 gene editing system and the BCL2-G101V knock-in single clone H96 was picked from the knock-in cell pool and validated by WES (whole exome-sequencing) and RNA-seq.
The BCL-2 dependent acute lymphoblastic leukemia (ALL) cell line, RS4;11(ATCC, CRL-1873), was cultured in RPMI-1640 complete medium (RPMI-1640 medium, HEPES (Gibco, 22400-105) supplemented with 10% fetal bovine serum (FBS) (Gibco, 10099-1441), 100 unit/ml penicillin and 100 μg/ml streptomycin (Gibco, 15140122)) and maintained in a humidified chamber at 37° C. containing 5% CO2.
To obtain BCL2-G101V knock-in cell pool, RS4;11 was co-transfected with the Cas9-gRNA which also expressed GFP label, and the Donor gene which contained the BCL2-G101V mutant sequence. After 48 hrs of electroporation, the GFP positive cells were collected through FACSAriaIII cell sorting system. Cell pool was recovered for 3 days and then cultured under 2 nM ABT-199 stress for 4 weeks. […] Then cells were plated in 96 well U-plate with 1 cell/well for 10000 wells for single clone selection. After 3-5 weeks growing, clones were successively screened by PCR sequencing. And three BCL2-G101V knock-in clones: H96, H142 and H233, have been picked out.
Three clones were validated by genome DNA and cDNA(mRNA) PCR sequencing, and BCL-2, BCL-xL and MCL-1 expression using Western Blot. The H96 clone was also validated by WES (whole exome-sequencing) and RNA-seq.
(2) Bcl 2-G101V Knock-In RS4;11 Cell Proliferation Assay
as §1, with “G101V knock-in” for “dependent acute lymphoblastic leukemia (ALL)”, “line H96 (derive from RS4;11) were” for “line, RS4;11, was”, “cells” for “cells (ATCC, CRL-1873)”, “μM or 10 μM” for “μM”, “90” for “180”, “100” for “200”
A general note: In ATP-based viability assays light output follows the ATP content of the culture.

Setting [6] is: Homo sapiens, RS4-11, RS4;11 cells.

`CC(C)c1ccccc1C1CN(C(C)c2ccccc2)CCN1C1CC2(CCN(c3ccc(C(=O)NS(=O)(=O)c4ccc(NC[C@H]5CC[C@](C)(O)CC5)c([N+](=O)[O-])c4)c(Oc4cnc5[nH]ccc5c4)c3)CC2)C1` (single isomer, unassigned) [Example 24a, 2-((1H-pyrrolo[2,3-b]pyridin-5-yl)oxy)-N-((4-((((1r,4r)-4-hydroxy-4-methylcyclohexyl)methyl)amino)-3-nitrophenyl)sulfonyl)-4-(2-(2-(2-isopropylphenyl)-4-(1-phenylethyl)piperazin-1-yl)-7-azaspiro[3.5]nonan-7-yl)benzamide]: the figures for the IC50 in experiment [1] (RS4;11 cells), in experiment [3] and in experiment [4] were 3.4 nM, 6.9 nM and 0.37 nM, respectively. In experiment [2], the “Ratio of Bcl-2 G101V/WT” value was found to be 18.6.

For `CC(C)c1ccccc1C1CN(CC(C)(C)C)CCN1C1CC2(CCN(c3ccc(C(=O)NS(=O)(=O)c4ccc(NC[C@H]5CC[C@](C)(O)CC5)c([N+](=O)[O-])c4)c(Oc4cnc5[nH]ccc5c4)c3)CC2)C1` (stereo partly drawn) [Example 12, 2-((1H-pyrrolo[2,3-b]pyridin-5-yl)oxy)-N-((4-((((1r,4r)-4-hydroxy-4-methylcyclohexyl)methyl)amino)-3-nitrophenyl)sulfonyl)-4-(2-(2-(2-isopropylphenyl)-4-neopentylpiperazin-1-yl)-7-azaspiro[3.5]nonan-7-yl)benzamide], the values for the IC50 in experiment [1] (setting [6]) and in experiment [5] were 3 nM and 40.5 nM, respectively.

As to `COCCN1CCN(C2CC3(CCN(c4ccc(C(=O)NS(=O)(=O)c5ccc(NC[C@H]6CC[C@](C)(O)CC6)c([N+](=O)[O-])c5)c(Oc5cnc6[nH]ccc6c5)c4)CC3)C2)C(c2ccccc2C(C)C)C1` (stereo partly drawn) [Example 13, 2-((1H-pyrrolo[2,3-b]pyridin-5-yl)oxy)-N-((4-((((1r,4r)-4-hydroxy-4-methylcyclohexyl)methyl)amino)-3-nitrophenyl)sulfonyl)-4-(2-(2-(2-isopropylphenyl)-4-(2-methoxyethyl)piperazin-1-yl)-7-azaspiro[3.5]nonan-7-yl)benzamide], the IC50 in experiment [1] (setting [6]) came out at 0.7 nM; in experiment [5], 5.67 nM.

Turning to `CC(C)c1ccccc1C1CN(c2ccccc2)CCN1C1CC2(CCN(c3ccc(C(=O)NS(=O)(=O)c4ccc(NC[C@H]5CC[C@](C)(O)CC5)c([N+](=O)[O-])c4)c(Oc4cnc5[nH]ccc5c4)c3)CC2)C1` (stereo partly drawn) [Example 65, 2-((1H-pyrrolo[2,3-b]pyridin-5-yl)oxy)-N-((4-((((1r,4r)-4-hydroxy-4-methylcyclohexyl)methyl)amino)-3-nitrophenyl)sulfonyl)-4-(2-(2-(2-isopropylphenyl)-4-phenylpiperazin-1-yl)-7-azaspiro [3.5]nonan-7-yl)benzamide], the IC50 was found to be 5.9 nM in experiment [1] (setting [6]), 54 nM in experiment [3] and 0.86 nM in experiment [4]. Further, the “Ratio of Bcl-2 G101V/WT” value in experiment [2] is listed as 62.8.

For `COc1cc(CN2CCN(C3CC4(CCN(c5ccc(C(=O)NS(=O)(=O)c6ccc(NC[C@H]7CC[C@](C)(O)CC7)c([N+](=O)[O-])c6)c(Oc6cnc7[nH]cc(F)c7c6)c5)CC4)C3)[C@H](c3ccccc3C(C)C)C2)cc(C)c1OC` [Example 210, 4-(2-((R)-4-(3,4-dimethoxy-5-methylbenzyl)-2-(2-isopropylphenyl)piperazin-1-yl)-7-azaspiro[3.5]nonan-7-yl)-2-((3-fluoro-1H-pyrrolo[2,3-b]pyridin-5-yl)oxy)-N-((4-((((1r,4r)-4-hydroxy-4-methylcyclohexyl)methyl)amino)-3-nitrophenyl)sulfonyl)benzamide], the values for the IC50 in experiment [1] (setting [6]) and in experiment [5] were 0.12 nM and 0.54 nM, respectively.

As to `COc1cc(CN2CCN(C3CC4(CCN(c5ccc(C(=O)NS(=O)(=O)c6ccc(NC[C@H]7CC[C@](C)(O)CC7)c([N+](=O)[O-])c6)c(Oc6cnc7[nH]ccc7c6)c5)CC4)C3)[C@H](c3ccccc3C(C)C)C2)ccc1Cl` [Example 276, 2-((1H-pyrrolo[2,3-b]pyridin-5-yl)oxy)-4-(2-((R)-4-(4-chloro-3-methoxybenzyl)-2-(2-isopropylphenyl)piperazin-1-yl)-7-azaspiro[3.5]nonan-7-yl)-N-((4-((((1r,4r)-4-hydroxy-4-methylcyclohexyl)methyl)amino)-3-nitrophenyl)sulfonyl)benzamide], the figures for the IC50 in experiment [1] (setting [6]) and in experiment [5] were 0.15 nM and 0.71 nM, respectively.

For `COc1cc(CN2CCN(C3CC4(CCN(c5ccc(C(=O)NS(=O)(=O)c6ccc(NC[C@H]7CC[C@](C)(O)CC7)c([N+](=O)[O-])c6)c(Oc6cnc7[nH]cc(F)c7c6)c5)CC4)C3)[C@H](c3ccccc3C(C)C)C2)ccc1Cl` [Example 278, 4-(2-((R)-4-(4-chloro-3-methoxybenzyl)-2-(2-isopropylphenyl)piperazin-1-yl)-7-azaspiro[3.5]nonan-7-yl)-2-((3-fluoro-1H-pyrrolo[2,3-b]pyridin-5-yl)oxy)-N-((4-((((1r,4r)-4-hydroxy-4-methylcyclohexyl)methyl)amino)-3-nitrophenyl)sulfonyl) benzamide], the IC50 was 0.15 nM in experiment [1] (setting [6]) and 0.46 nM in experiment [5].
